From the supplement of paper PMC11061612

Key:
Experiment in all cases: combination Emax (second highest fraction inhibited in the dose matrix, 72 h); higher = more inhibition; extreme values may be limits of the assay
[1] = test system: HOP-62 (Lung Adenocarcinoma)
Method in brief: (§1)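 Bliss excess equals the observed combination effect minus the expected value EA + EB − EA·EB, where EA and EB are the effects of each agent alone. Combination Emax is the second-highest inhibition within the matrix. Inhibition was scaled from CellTiter-Glo 2.0 luminescence, with 0 set by vehicle wells and 1 by blank wells, after 72 hours of two-drug dosing of cells plated in 1536-well plates.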

[2] = test system: KYSE-450 (Esophageal Squamous Cell Carcinoma)
Method in brief: as §1

[3] = test system: SW13 (Other Solid Carcinomas)
Method in brief: as §1

[4] = test system: HSC-4 (Oral Cavity Carcinoma)
Method in brief: as §1

[5] = test system: TGW (Neuroblastoma)
Method in brief: as §1

[6] = test system: LU-65 (Non-Small Cell Lung Carcinoma)
Method in brief: as §1

[7] = test system: SU8686 (Pancreatic Carcinoma)
Method in brief: as §1

[8] = test system: SCC-15 (Oral Cavity Carcinoma)
Method in brief: as §1

[9] = test system: TE-1 (Esophageal Squamous Cell Carcinoma)
Method in brief: as §1

[10] = test system: Hs-766T (Pancreatic Carcinoma)
Method in brief: as §1

[11] = test system: OSC-20 (Oral Cavity Carcinoma)
Method in brief: as §1

[12] = test system: OE19 (Esophageal Adenocarcinoma)
Method in brief: as §1

[13] = test system: TK10 (Kidney Carcinoma)
Method in brief: as §1

[14] = test system: NEC8 (Other Solid Carcinomas)
Method in brief: as §1

[15] = test system: NCI-H358 (Lung Adenocarcinoma)
Method in brief: as §1

[16] = test system: C-4-I (Cervical Carcinoma)
Method in brief: as §1

[17] = test system: EW-24 (Ewing's Sarcoma)
Method in brief: as §1

[18] = test system: EFM-19 (Breast Carcinoma)
Method in brief: as §1

[19] = test system: Ca9-22 (Head and Neck Carcinoma)
Method in brief: as §1

[20] = test system: ACHN (Kidney Carcinoma)
Method in brief: as §1

Compound | combination Emax [1] | combination Emax [2] | combination Emax [3] | combination Emax [4] | combination Emax [5] | combination Emax [6] | combination Emax [7] | combination Emax [8] | combination Emax [9] | combination Emax [10] | combination Emax [11] | combination Emax [12] | combination Emax [13] | combination Emax [14] | combination Emax [15] | combination Emax [16] | combination Emax [17] | combination Emax [18] | combination Emax [19] | combination Emax [20]
CC(=O)c1c(C)c2cnc(Nc3ccc(N4CCNCC4)cn3)nc2n(C2CCCC2)c1=O [Palbociclib] + Cn1cnc2c(F)c(Nc3ccc(Br)cc3Cl)c(C(=O)NOCCO)cc21 [Selumetinib] (first compound max 10 µM, 7x7, partner max 10 µM) | 0.471 | 0.403 | 0.444 | 0.261 | 0.342 | 0.491 | 0.173 | 0.232 | 0.383 | 0.465 | 0.182 | 0.332 | 0.427 | 0.0587 | 0.524 | 0.349 | 0.318 | 0.162 | 0.458 | 0.606
C[C@@H]1COCCN1c1cc(C2([S@](C)(=N)=O)CC2)nc(-c2ccnc3[nH]ccc23)n1 [AZD6738] + O=C(c1cc(Cc2n[nH]c(=O)c3ccccc23)ccc1F)N1CCN(C(=O)C2CC2)CC1 [Olaparib] (first compound max 10 µM, 7x7, partner max 10 µM) | 0.498 | 0.608 | 0.451 | 0.691 | 0.731 | 0.751 | 0.288 | 0.587 | 0.319 | 0.554 | 0.387 | 0.55 | 0.471 | 0.764 | 0.544 | 0.875 | 0.567 | 0.439 | 0.88 | 0.988
CC1(C)CCC(CN2CCN(c3ccc(C(=O)NS(=O)(=O)c4ccc(NCC5CCOCC5)c([N+](=O)[O-])c4)c(Oc4cnc5[nH]ccc5c4)c3)CC2)=C(c2ccc(Cl)cc2)C1 [Venetoclax] + C=CCn1c(=O)c2cnc(Nc3ccc(N4CCN(C)CC4)cc3)nc2n1-c1cccc(C(C)(C)O)n1 [AZD1775] (first compound max 1 µM, partner max 1 µM) | 0.446 | 0.614 | 0.289 | 0.372 | 0.846 | 0.733 | 0.107 | 0.327 | 0.603 | 0.53 | 0.253 | 0.223 | 0.591 | 0.42 | 0.798 | 0.872 | 0.34 | 0.489 | 0.903 | 0.96
CC1(C)CCC(CN2CCN(c3ccc(C(=O)NS(=O)(=O)c4ccc(NCC5CCOCC5)c([N+](=O)[O-])c4)c(Oc4cnc5[nH]ccc5c4)c3)CC2)=C(c2ccc(Cl)cc2)C1 [Venetoclax] + C[C@@H](Nc1cc(F)cc(F)c1)c1cc(C(=O)N(C)C)cc2c(=O)cc(N3CCOCC3)oc12 [AZD8186] (first compound max 1 µM, 7x7, partner max 3 µM) | 0.264 | 0.118 | 0.128 | 0.177 | 0.377 | 0.199 | 0.127 | 0.166 | 0.217 | 0.349 | 0.128 | 0.306 | 0.465 | 0.0292 | 0.149 | 0.398 | 0.26 | 0.412 | 0.471 | 0.842
CS(=O)(=O)CCNCc1ccc(-c2ccc3ncnc(Nc4ccc(OCc5cccc(F)c5)c(Cl)c4)c3c2)o1 [Lapatinib] + C[C@@H](Oc1cc(-c2cnn(C3CCNCC3)c2)cnc1N)c1c(Cl)ccc(F)c1Cl [Crizotinib] (first compound max 10 µM, 7x7, partner max 10 µM) | 0.842 | 0.869 | 0.9 | 0.465 | 0.776 | 0.894 | 0.16 | 0.944 | 0.919 | 0.319 | 0.795 | 1 | 0.656 | 0.862 | 0.926 | 0.943 | 0.9 | 0.554 | 0.987 | 0.781
CS(=O)(=O)CCNCc1ccc(-c2ccc3ncnc(Nc4ccc(OCc5cccc(F)c5)c(Cl)c4)c3c2)o1 [Lapatinib] + NC1(c2ccc(-c3nc4ccn5c(=O)[nH]nc5c4cc3-c3ccccc3)cc2)CCC1 [MK-2206] (first compound max 10 µM, 7x7, partner max 10 µM) |  | 0.602 | 0.902 | 0.42 | 0.422 | 0.649 |  |  |  | 0.303 |  |  | 0.698 |  | 0.631 |  | 0.925 | 0.792 | 0.971 | 0.676
Cc1c2c(nn1C)CSCc1cc(n(C)n1)CSc1cc(c3ccccc3c1)OCCCc1c(C(=O)O)n(C)c3c-2c(Cl)ccc13 [AZD5991] + Cc1cc2ncnn2cc1Nc1ncc2c(n1)n(C1CCOCC1)c(=O)n2C [AZD7648] (first compound max 1 µM, 7x7, partner max 10 µM) | 0.281 | 0.268 | 0.861 | 0.171 | 0.339 | 0.397 | 0.127 | 0.25 | 0.599 | 0.398 | 0.257 | 0.424 | 0.385 | 0.339 | 0.331 | 1 | 0.258 | 0.629 | 0.214 | 0.246
Cc1c2c(nn1C)CSCc1cc(n(C)n1)CSc1cc(c3ccccc3c1)OCCCc1c(C(=O)O)n(C)c3c-2c(Cl)ccc13 [AZD5991] + C[C@@H]1COCCN1C2=NC(=NC(=C2)C3(CC3)[S@](=N)(=O)C)C4=C5C=CNC5=NC=C4 [AZD6738] (first compound max 1 µM, 7x7, partner max 10 µM) | 0.784 | 0.55 | 0.854 | 0.678 | 0.714 | 0.675 | 0.353 | 0.561 | 0.747 | 0.574 | 0.406 | 0.746 | 0.522 | 0.978 | 0.632 | 1 | 0.53 | 0.465 | 0.93 | 0.948
CN(C)CCCOc1ccc(-c2ccc3ncc4c(c3c2)n(C2CCOCC2)c(=O)n4C)cn1 [AZD0156] + C[C@@H]1COCCN1C2=NC(=NC(=C2)C3(CC3)[S@](=N)(=O)C)C4=C5C=CNC5=NC=C4 [AZD6738] (first compound max 1 µM, 7x7, partner max 10 µM) | 0.546 | 0.649 | 0.469 | 0.685 | 0.833 | 0.76 | 0.365 | 0.446 | 0.462 | 0.607 | 0.334 | 0.869 | 0.695 | 0.877 | 0.656 | 0.872 | 0.552 | 0.345 | 0.925 | 0.883
COc1nnc2ccc(N3CCC(c4ccc(OCCN5CCN(C)C(=O)[C@H]5C)cc4)CC3)nn12 [AZD5153] + C[C@@H]1COCCN1C2=NC(=NC(=C2)C3(CC3)[S@](=N)(=O)C)C4=C5C=CNC5=NC=C4 [AZD6738] (first compound max 1 µM, 7x7, partner max 10 µM) | 0.664 | 0.481 | 0.718 | 0.528 | 0.728 | 0.734 | 0.1 | 0.524 | 0.617 | 0.543 | 0.309 | 0.616 | 0.695 | 0.954 | 0.698 | 0.876 | 0.834 | 0.549 | 0.878 | 0.928
Cc1c2c(nn1C)CSCc1cc(n(C)n1)CSc1cc(c3ccccc3c1)OCCCc1c(C(=O)O)n(C)c3c-2c(Cl)ccc13 [AZD5991] + C1CN(CCC1(C(=O)N[C@@H](CCO)C2=CC=C(C=C2)Cl)N)C3=NC=NC4=C3C=CN4 [Capivasertib] (first compound max 1 µM, 7x7, partner max 3 µM) | 0.257 | 0.376 | 0.967 | 0.42 | 0.326 | 0.543 | 0.129 | 0.207 | 0.553 | 0.23 | 0.199 | 0.442 | 0.257 | 0.431 | 0.243 | 1 | 0.332 | 0.629 | 0.242 | 
CCc1c2c(nc3ccc(O)cc13)-c1cc3c(c(=O)n1C2)COC(=O)[C@]3(O)CC [SN-38] + O=C(c1cc(Cc2n[nH]c(=O)c3ccccc23)ccc1F)N1CCN(C(=O)C2CC2)CC1 [Olaparib] (first compound max 0.3 µM, 7x7, partner max 10 µM) | 0.672 | 0.671 | 0.962 |  | 0.668 | 0.87 |  |  |  | 0.415 | 0.746 | 0.309 | 0.373 | 1 | 0.693 | 0.928 | 0.821 | 0.566 | 0.868 | 0.912
C[C@@H](Nc1cc(F)cc(F)c1)c1cc(C(=O)N(C)C)cc2c(=O)cc(N3CCOCC3)oc12 [AZD8186] + C1CN(CCC1(C(=O)N[C@@H](CCO)C2=CC=C(C=C2)Cl)N)C3=NC=NC4=C3C=CN4 [AZD5363] (first compound max 10 µM, 7x7, partner max 10 µM) |  | 0.31 | 0.251 |  | 0.258 | 0.615 |  |  |  | 0.336 |  |  | 0.454 |  | 0.33 |  | 0.447 | 0.432 | 0.296 | 0.414
